This note sets out measurements from the supplement of paper PMC10627819.

Assay in all cases: Bliss interaction score (quartile over a dose matrix) (fitness difference); higher = more antagonism (negative = synergy)
For one test, the system named is S. pneumoniae D39V. A digest of the protocol: (§1)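 Fitness was OD595 at entry into stationary phase divided by the plate's robust no-drug mean and capped at 1; single-drug fitness was inferred from combination data. The Bliss score is observed minus expected (product) fitness, summarised by quartiles over technical, biological and donor/recipient replicates.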
The subject of another test is S. aureus Newman. A digest of the protocol:
as §1

In another test the test system is S. aureus DSM 20231. A digest of the protocol:
as §1

The next test deals with B. subtilis 168. An outline of the steps:
as §1
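Further: first quartile when negative (synergy) and third quartile when positive (antagonism).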

Consider `CNC(C)C1CCC(N)C(OC2C(N)CC(N)C(OC3OCC(C)(O)C(NC)C3O)C2O)O1` (stereo unspecified) [Gentamicin] + CN[C@H](CC(C)C)C(=O)N[C@H]1C(=O)N[C@@H](CC(N)=O)C(=O)N[C@H]2C(=O)N[C@H]3C(=O)N[C@H](C(=O)N[C@H](C(=O)O)c4cc(O)cc(O)c4-c4cc3ccc4O)[C@H](O[C@H]3C[C@](C)(N)[C@@H](O)[C@H](C)O3)c3ccc(c(Cl)c3)Oc3cc2cc(c3O[C@@H]2O[C@H](CO)[C@@H](O)[C@H](O)[C@H]2O[C@H]2C[C@](C)(NCc3ccc(-c4ccc(Cl)cc4)cc3)[C@@H](O)[C@H](C)O2)Oc2ccc(cc2Cl)[C@H]1O [Oritavancin], for which the Bliss interaction score in the test with S. pneumoniae D39V (main component drawn) is 0.0748; in the test with S. aureus Newman (main component drawn), 0.0919; in the test on S. aureus DSM 20231 (main component drawn), -0.0507; in the test with B. subtilis 168 (main component drawn) it was 0.048.
For `CNC(C)C1CCC(N)C(OC2C(N)CC(N)C(OC3OCC(C)(O)C(NC)C3O)C2O)O1` (stereo unspecified) [Gentamicin] + CO[C@@]12[C@H](COC(N)=O)C3=C(C(=O)C(C)=C(N)C3=O)N1C[C@@H]1N[C@@H]12 [MitomycinC] the same measures were 0.0575, 0.0445, -0.0573 and -0.0792.
In the same order, the values of `CNC(C)C1CCC(N)C(OC2C(N)CC(N)C(OC3OCC(C)(O)C(NC)C3O)C2O)O1` (stereo unspecified) [Gentamicin] + Oc1cc(Cl)ccc1Oc1ccc(Cl)cc1Cl [Triclosan] are 0.0731, 0.0182, -0.0821 and -0.17.
Take `Clc1ccc(COC(Cn2ccnc2)c2ccc(Cl)cc2Cl)c(Cl)c1` (stereo unspecified) [Miconazole] + CC1(C)S[C@@H]2[C@H](NC(=O)Cc3ccccc3)C(=O)N2[C@H]1C(=O)O [PenicillinG]: the Bliss interaction score was 0.106 in the test on S. pneumoniae D39V, -0.0331 in the test with S. aureus Newman, 0.0525 with S. aureus DSM 20231 and 0.0707 in the test with B. subtilis 168.
With `Clc1ccc(COC(Cn2ccnc2)c2ccc(Cl)cc2Cl)c(Cl)c1` (stereo unspecified) [Miconazole] + CCCCCCCCCC(=O)N[C@@H]1[C@H]([C@@H]([C@H](O[C@H]1OC2=C3C=C4C=C2OC5=C(C=C(C=C5)[C@H]([C@H]6C(=O)N[C@@H](C7=C(C(=CC(=C7)O)OC8[C@H]([C@H]([C@@H]([C@H](O8)CO)O)O)O)C9=C(C=CC(=C9)[C@H](C(=O)N6)NC(=O)[C@@H]4NC(=O)[C@@H]1C2=CC(=CC(=C2)OC2=C(C=CC(=C2)[C@H](C(=O)N[C@H](CC2=CC(=C(O3)C=C2)Cl)C(=O)N1)N)O)O)O)C(=O)O)O[C@H]1[C@@H]([C@H]([C@@H]([C@H](O1)CO)O)O)NC(=O)C)Cl)CO)O)O [Teicoplanin], the Bliss interaction score in the test with S. pneumoniae D39V (main component drawn) was 0.115; in the test on S. aureus Newman (main component drawn) it was -0.0558; in the test on S. aureus DSM 20231 (main component drawn), -0.0409; in the test on B. subtilis 168 (main component drawn) it was 0.117.
`Clc1ccc(COC(Cn2ccnc2)c2ccc(Cl)cc2Cl)c(Cl)c1` (stereo unspecified) [Miconazole] + CC[C@H]1OC(=O)[C@H](C)C(=O)[C@H](C)[C@@H](O[C@@H]2O[C@H](C)C[C@H](N(C)C)[C@H]2O)[C@](C)(OC)C[C@@H](C)C(=O)[C@H](C)[C@H]2N(CCCCn3cnc(-c4cccnc4)c3)C(=O)O[C@]12C [Telithromycin]: the Bliss interaction score with S. pneumoniae D39V was 0.104; in the test on S. aureus Newman, 0.0508; with S. aureus DSM 20231, 0.04; with B. subtilis 168 it was 0.0586.
In the same order, the values of `Clc1ccc(COC(Cn2ccnc2)c2ccc(Cl)cc2Cl)c(Cl)c1` (stereo unspecified) [Miconazole] + CN[C@H](CC(C)C)C(=O)N[C@H]1C(=O)N[C@@H](CC(N)=O)C(=O)N[C@H]2C(=O)N[C@H]3C(=O)N[C@H](C(=O)N[C@H](C(=O)O)c4cc(O)cc(O)c4-c4cc3ccc4O)[C@H](O[C@H]3C[C@](C)(N)[C@@H](O)[C@H](C)O3)c3ccc(c(Cl)c3)Oc3cc2cc(c3O[C@@H]2O[C@H](CO)[C@@H](O)[C@H](O)[C@H]2O[C@H]2C[C@](C)(NCc3ccc(-c4ccc(Cl)cc4)cc3)[C@@H](O)[C@H](C)O2)Oc2ccc(cc2Cl)[C@H]1O [Oritavancin] are -0.0639, -0.0754, -0.0286 and -0.0225.
In the same order, the values of `Clc1ccc(COC(Cn2ccnc2)c2ccc(Cl)cc2Cl)c(Cl)c1` (stereo unspecified) [Miconazole] + CO[C@@H]1[C@@H](OC(N)=O)[C@@H](O)[C@H](Oc2ccc3c(O)c(NC(=O)c4ccc(O)c(CC=C(C)C)c4)c(=O)oc3c2C)OC1(C)C [Novobiocin] are 0.121, 0.0415, 0.0483 and 0.0735.
In the same order, the values of `Clc1ccc(COC(Cn2ccnc2)c2ccc(Cl)cc2Cl)c(Cl)c1` (stereo unspecified) [Miconazole] + CO[C@@]12[C@H](COC(N)=O)C3=C(C(=O)C(C)=C(N)C3=O)N1C[C@@H]1N[C@@H]12 [MitomycinC] are 0.0662, -0.188, 0.0383 and -0.066.
`Clc1ccc(COC(Cn2ccnc2)c2ccc(Cl)cc2Cl)c(Cl)c1` (stereo unspecified) [Miconazole] + COc1cc(Cc2cnc(N)nc2N)cc(OC)c1OC [Trimethoprim]: the Bliss interaction score in the test with S. pneumoniae D39V was -0.117; in the test with S. aureus Newman, 0.0486; in the test with S. aureus DSM 20231, 0.0514; in the test with B. subtilis 168 it was 0.0906.
In the same order, the values of `Clc1ccc(COC(Cn2ccnc2)c2ccc(Cl)cc2Cl)c(Cl)c1` (stereo unspecified) [Miconazole] + Oc1cc(Cl)ccc1Oc1ccc(Cl)cc1Cl [Triclosan] are 0.0535, 0.0222, 0.0712 and 0.0625.
In the same order, the values of `Cc1onc(-c2ccccc2)c1C(=O)N[C@@H]1C(=O)N2[C@@H]1SC(C)(C)[C@@H]2C(=O)O` [Oxacillin] + C/C(=C\C(=O)OCCCCCCCCC(=O)O)C[C@@H]1OC[C@H](C[C@@H]2O[C@H]2[C@@H](C)[C@H](C)O)[C@@H](O)[C@H]1O [Pseudomonic acid] are 0.158, 0.0232, 0.0247 and 0.0424.
In the same order, the values of `Cc1onc(-c2ccccc2)c1C(=O)N[C@@H]1C(=O)N2[C@@H]1SC(C)(C)[C@@H]2C(=O)O` [Oxacillin] + CC1(C)S[C@@H]2[C@H](NC(=O)Cc3ccccc3)C(=O)N2[C@H]1C(=O)O [PenicillinG] are -0.235, -0.0558, 0.0796 and -0.0214.
For the molecule `Cc1onc(-c2ccccc2)c1C(=O)N[C@@H]1C(=O)N2[C@@H]1SC(C)(C)[C@@H]2C(=O)O` [Oxacillin] + CC[C@H]1OC(=O)[C@H](C)C(=O)[C@H](C)[C@@H](O[C@@H]2O[C@H](C)C[C@H](N(C)C)[C@H]2O)[C@](C)(OC)C[C@@H](C)C(=O)[C@H](C)[C@H]2N(CCCCn3cnc(-c4cccnc4)c3)C(=O)O[C@]12C [Telithromycin], the Bliss interaction score in the test with S. pneumoniae D39V is 0.112; with S. aureus Newman, 0.0304; in the test with S. aureus DSM 20231 it was 0.0397; in the test on B. subtilis 168, -0.0301.
